In article PMC12948427 (The Journal of Clinical Investigation, 2025):
“And” between values parts separate entries of the source, which are not always exact repeats. Equal values may be shown once. Read-outs that look alike come from different tables or passages of the source.

Experiments:
[1] = system: MHV
[2] = biological target: T1, hHgs 1-390 protein (Homo sapiens, UniProt O14964)
[3] = system: 17Cl-1 cells
[4] = biological target: T1, hHgs 1-390 protein; experiment: biochemical

T1 sequence (O14964 1-390): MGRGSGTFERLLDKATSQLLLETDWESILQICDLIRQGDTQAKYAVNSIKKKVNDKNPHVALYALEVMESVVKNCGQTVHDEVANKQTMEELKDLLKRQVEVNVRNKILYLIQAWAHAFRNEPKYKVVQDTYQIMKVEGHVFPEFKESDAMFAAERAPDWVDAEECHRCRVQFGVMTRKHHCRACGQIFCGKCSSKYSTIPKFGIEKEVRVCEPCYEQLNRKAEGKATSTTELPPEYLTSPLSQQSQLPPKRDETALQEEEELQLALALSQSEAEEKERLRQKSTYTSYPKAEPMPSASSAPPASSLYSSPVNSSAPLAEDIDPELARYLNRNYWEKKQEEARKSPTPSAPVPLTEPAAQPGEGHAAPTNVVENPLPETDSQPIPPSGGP

SMILES	viability of infected cells (rescue of cytopathic effect), Figures S9G-L ([1]; concentration 10)	viability of infected cells (rescue of cytopathic effect), Figures S9G-L ([1]; concentration 30)	viability of infected cells (rescue of cytopathic effect), Figures S9G-L ([1]; concentration 100)	viability of infected cells (rescue of cytopathic effect), Figures S9G-L ([1]; concentration 300)	viability of infected cells (rescue of cytopathic effect), Figures S9G-L ([1]; concentration 1000)	viability of infected cells (rescue of cytopathic effect), Figures S9G-L ([1]; concentration 3000)	viability of infected cells (rescue of cytopathic effect), Figures S9G-L ([1]; concentration 10000)	viability of infected cells (rescue of cytopathic effect), Figures S9G-L ([1]; concentration 25000)	Polarization ([2]; 0.00610352 uM)	Polarization ([2]; 0.0244141 uM)	Polarization ([2]; 0.0976562 uM)	Polarization ([2]; 0.390625 uM)	Polarization ([2]; 1.5625 uM)	Polarization ([2]; 6.25 uM)	cell viability, Figures S9A, B, D-F ([3]; concentration 0.01)	cell viability, Figures S9A, B, D-F ([3]; concentration 0.03)	cell viability, Figures S9A, B, D-F ([3]; concentration 0.1)	cell viability, Figures S9A, B, D-F ([3]; concentration 0.3)	cell viability, Figures S9A, B, D-F ([3]; concentration 1)	cell viability, Figures S9A, B, D-F ([3]; concentration 3)	also measured
COc1cc(OC)c2ccc(=O)oc2c1 [Citropten, citropten]	49.655 and 47.1823 and 44.4221	48.2749 and 46.3772 and 44.6233	44.4221 and 42.6394 and 45.4572	47.7573 and 43.5308 and 44.5946	47.3548 and 44.7384 and 49.3099	49.77 and 48.2461 and 50.575	55.1466 and 56.7568	67.4813 and 66.8775 and 68.0851	144	145 and 146	135 and 136	119 and 129	75 and 87	26 and 35	100	100	100	100	100	100	cell viability, Figures S9A, B, D-F ([3]; concentration 10): 100; cell viability, Figures S9A, B, D-F ([3]; concentration 25): 100 and 98.7013 and 97.6623; IC50 [4]: 2170 nM
CC1=NN(c2ccc(C)c(C)c2)C(=O)/C1=N\Nc1cccc(-c2cccc(C(=O)O)c2)c1O [Eltrombopag, eltrombopag]	40.6593 and 41.7582 and 41.3919	46.1538 and 47.2527 and 46.5201	46.1538 and 47.619 and 44.6886	42.4908 and 43.956 and 41.7582	41.3919 and 43.5897 and 40.6593	40.293 and 41.7582	45.0549 and 44.3223 and 43.5897	23.7729 and 23.8095 and 24.0659	143 and 142	147 and 141	143 and 140	145 and 149	107 and 109	80 and 76	104.545 and 104.221	100.327 and 102.614 and 102.288	99.1416 and 102.682 and 102.039	104.867 and 102.544 and 103.872	103.708 and 104.035	104.491 and 102.191 and 102.848	Polarization ([2]; 25 uM): 89; cell viability, Figures S9A, B, D-F ([3]; concentration 10): 96.1957 and 94.8913 and 95.2174; cell viability, Figures S9A, B, D-F ([3]; concentration 25): 58.804 and 63.1229 and 62.4585; IC50 [4]: 1520 nM
CCOc1ccc2nc3cc(N)ccc3c(N)c2c1 [Ethacridine lactate, ethacridine lactate]	29.3773 and 29.6337 and 29.1575	34.9451 and 36.63 and 36.4103	33.0403 and 35.0549 and 36.2271	32.8571 and 32.6374 and 34.6886	32.4176 and 32.0513 and 35.0916	33.0037 and 32.1612 and 34.9817	41.7582 and 41.0256 and 40.6593	8.462 and 8.5348 and 8.278	140 and 149	140 and 144	143	137 and 141	134 and 136	102 and 105	101.299 and 101.948 and 102.597	100.98 and 101.961 and 102.614	100.429 and 99.7854 and 102.039	100.553 and 101.217	103.053 and 102.399 and 103.381	103.176 and 101.862 and 103.834	Polarization ([2]; 25 uM): 73 and 70; Polarization ([2]; 100 uM): 68 and 66; cell viability, Figures S9A, B, D-F ([3]; concentration 10): 96.1957 and 98.8043; cell viability, Figures S9A, B, D-F ([3]; concentration 25): 30.7973 and 30.3654 and 31.5947; IC50 [4]: 7140 nM
